Data: the supplement of paper PMC10307832

Assays:
Test in all cases: relative viability (nuclei count vs DMSO), 5 days (fraction); higher = more cells survive
[1] = compound: COC1=CC=C(C=C1)CN2C=CC3=C2C=C(C=C3)C(=O)NO + Cc1nc(NC(=O)N2CCC[C@H]2C(N)=O)sc1-c1ccnc(C(C)(C)C(F)(F)F)c1 [Alpelisib] (partner 2 µM)
In short: (§1)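 Medians of duplicate plates are given as relative viability. That measure is the nuclei count in treated wells divided by the count in vehicle wells. Counts were taken on 4× images of lung cancer cell lines in 1536-well plates, 5 days after pin-tool dosing the day after seeding with one drug alone or a fixed anchor-drug dose plus five library-drug doses (not always all listed) in √10 steps.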

[2] = compound: COC1=CC=C(C=C1)CN2C=CC3=C2C=C(C=C3)C(=O)NO + O=C(c1cc(Cc2n[nH]c(=O)c3ccccc23)ccc1F)N1CCN(C(=O)C2CC2)CC1 [Olaparib] (partner 8 µM)
In short: as §1

[3] = compound: C[C@]1(c2nc3c(C(N)=O)cccc3[nH]2)CCCN1 [Veliparib] + CC(C)C[C@H](NC(=O)[C@H](Cc1ccccc1)NC(=O)c1cnccn1)B(O)O [Bortezomib] (partner 0.002 µM)
In short: as §1

[4] = compound: C[C@]1(c2nc3c(C(N)=O)cccc3[nH]2)CCCN1 [Veliparib] + C[C@]1(O)C[C@@H](c2nc(-c3ccc4ccc(-c5ccccc5)nc4c3)c3c(N)nccn32)C1 [Linsitinib] (partner 1 µM)
In short: as §1

Cell Line | relative viability ([1]; first compound 0.08 µM) | relative viability ([1]; first compound 0.253 µM) | relative viability ([1]; first compound 0.8 µM) | relative viability ([1]; first compound 2.53 µM) | relative viability ([1]; first compound 8 µM) | relative viability ([2]; first compound 0.08 µM) | relative viability ([2]; first compound 0.253 µM) | relative viability ([2]; first compound 0.8 µM) | relative viability ([2]; first compound 2.53 µM) | relative viability ([2]; first compound 8 µM) | relative viability ([3]; first compound 0.02 µM) | relative viability ([3]; first compound 0.06325 µM) | relative viability ([3]; first compound 0.2 µM) | relative viability ([3]; first compound 0.6325 µM) | relative viability ([3]; first compound 2 µM) | relative viability ([4]; first compound 0.02 µM) | relative viability ([4]; first compound 0.06325 µM) | relative viability ([4]; first compound 0.2 µM) | relative viability ([4]; first compound 0.6325 µM) | relative viability ([4]; first compound 2 µM)
NCI-H1651 | 0.993 | 1.06 | 0.964 | 0.789 | 0.723 | 0.168 | 0.158 | 0.194 | 0.182 | 0.179 | 0.924 | 0.883 | 0.908 | 0.918 | 0.876 | 0.854 | 1.01 | 0.984 | 0.82 | 0.805
NCI-H1755 | 0.819 | 0.964 | 0.913 | 0.995 | 0.928 | 0.77 | 0.89 | 0.831 | 0.955 | 0.867 | 0.888 | 0.892 | 0.924 | 0.954 | 0.868 | 1 | 0.972 | 0.972 | 0.968 | 0.963
LCLC-103H | 0.998 | 0.992 | 0.954 | 1.03 | 0.855 | 0.743 | 0.777 | 0.773 | 0.781 | 0.708 | 0.822 | 0.963 | 1.01 | 1.05 | 0.933 | 1.1 | 0.982 | 1.11 | 1.01 | 1.08
NCI-H1915 | 1.02 | 1.07 | 1.06 | 1.08 | 1.02 | 0.233 | 0.26 | 0.234 | 0.259 | 0.24 | 0.939 | 1.02 | 0.842 | 0.915 | 0.755 | 1.07 | 1.07 | 1.02 | 0.954 | 0.995
HOP-62 | 0.71 | 0.996 | 0.985 | 0.932 | 0.947 |  | 0.47 | 0.489 | 0.396 | 0.384 | 0.729 | 1.16 | 0.811 | 0.733 | 0.951 | 1 | 0.923 | 0.738 | 0.987 | 0.983
HARA | 0.149 | 0.851 | 0.765 | 0.917 | 0.693 |  | 0.835 | 1.09 | 0.711 | 0.762 | 1.13 | 1.1 | 0.995 | 1.11 | 1.16 | 1.15 | 0.992 | 0.908 | 0.743 | 1.07
NCI-H520 | 0.43 | 1.16 | 0.887 | 0.904 | 0.853 | 0.342 | 0.362 | 0.327 | 0.339 | 0.286 | 0.532 | 0.67 | 0.791 | 0.608 | 0.643 | 0.984 | 1.03 | 0.966 | 0.922 | 1.04
NCI-H1395 | 0.708 | 1.1 | 1.11 | 0.979 | 0.967 |  | 0.419 | 0.49 | 0.496 | 0.436 |  |  |  |  |  |  | 0.987 | 0.853 | 0.745 | 0.716
NCI-H1792 | 0.663 | 0.765 | 0.744 | 0.741 | 0.617 | 0.438 | 0.578 | 0.445 | 0.447 | 0.561 | 0.924 | 0.858 | 0.981 | 0.916 | 0.897 | 0.59 | 0.422 | 0.535 | 0.494 | 0.543
